The values below come from patent publication US10358449B2, “Xanthine derivative” (priority 2015, dated 2019).

In data set [1] the target is humanized recombinant DPP-IV (Homo sapiens (Human), UniProt P27487). Kind of data set: DPP-IV activity inhibition test in vitro (DPPIV-Glo luminescence). In kind it is biochemical. Conditions: DPP-IV, Table 1; read-out: IC50. The protocol: (1) DPP-IV Activity Inhibition Tests In Vitro
DPP-IV could hydrolyze Gly-Pro-Aminoluciferin at room temperature to generate Aminoluciferin, which could produce “glow type” luminescent signals in a luciferase reaction system provided by a DPPIV-Glo™ protease test kit, and the strength of the luminescent signals was in direct proportion to the enzyme activity of DPP-IV.
2.1 humanized recombinant DPP-IV: SIGMA product, article number D3446-10UG.
2.2 DPPIV-Glo™ protease detection kit: Promega product, article number G8351.
3.2 Diluting dipeptidyl peptidase IV (Sigma) to 0.2 ng/ml solution with 10 mM Tris-HCl (pH 8.0), adding the samples to be detected in, per well 25 μl. […] Experimental Results

The test system of another data set is normal mice (C57BL/6J). Put plainly: Oral glucose tolerance test of normal mice. Set-up: AUC0-120 min: unit not given beside the values. In kind it is in vivo, mouse. As for the experimental part:
(§1) 2. Experimental method: normal mice, obese mice and diabetic mice were used for studying glucose tolerance tests Experimental process of OGTT (Oral Glucose Tolerance Test): fasting for 6 hours before the test begins, 60 min after drug administration, glucose was administrated by gavage (drug concentration 0.6 mg/ml, administration volume 5 ml/kg) (2 g/kg glucose was administrated to diabetic mice; 2 g/kg glucose was administrated to obese mice; and 5 g/kg glucose was administrated to normal mice), blood glucose values at 0 min, 15 min, 30 min, 45 min, 60 min and 120 min are respectively determined after glucose administration, […]

Data set [2] deals with obese mice (B6.Cg-Lepob/JNju). Kind of data set: Glucose tolerance test of obese mice. In kind it is in vivo, mouse. Set-up: AUC0-120 min: unit not given beside the values. The protocol:
as §1

The subject of data set [3] is diabetic mice (B6.BKS(D)-Leprdb/JNju). Put plainly: Glucose tolerance test of diabetic mice (Table 5). Details: AUC0-120 min: unit not given beside the values. The class given is in vivo, mouse. The protocol: as §1
For data set [4] the following is noted: CD-1 mouse, 5 mg/kg, oral administration; cited from earlier work.
The conditions of data set [5]: man, 5 mg/subject; cited from earlier work.

Structures are written as SMILES. Structures can show the parent of a compound that is named as a salt. Where two headings read alike, the source gives them in different places. Marks after values point to notes of the source that are not given here.

humanized recombinant DPP-IV, sequence (P27487 whole entry): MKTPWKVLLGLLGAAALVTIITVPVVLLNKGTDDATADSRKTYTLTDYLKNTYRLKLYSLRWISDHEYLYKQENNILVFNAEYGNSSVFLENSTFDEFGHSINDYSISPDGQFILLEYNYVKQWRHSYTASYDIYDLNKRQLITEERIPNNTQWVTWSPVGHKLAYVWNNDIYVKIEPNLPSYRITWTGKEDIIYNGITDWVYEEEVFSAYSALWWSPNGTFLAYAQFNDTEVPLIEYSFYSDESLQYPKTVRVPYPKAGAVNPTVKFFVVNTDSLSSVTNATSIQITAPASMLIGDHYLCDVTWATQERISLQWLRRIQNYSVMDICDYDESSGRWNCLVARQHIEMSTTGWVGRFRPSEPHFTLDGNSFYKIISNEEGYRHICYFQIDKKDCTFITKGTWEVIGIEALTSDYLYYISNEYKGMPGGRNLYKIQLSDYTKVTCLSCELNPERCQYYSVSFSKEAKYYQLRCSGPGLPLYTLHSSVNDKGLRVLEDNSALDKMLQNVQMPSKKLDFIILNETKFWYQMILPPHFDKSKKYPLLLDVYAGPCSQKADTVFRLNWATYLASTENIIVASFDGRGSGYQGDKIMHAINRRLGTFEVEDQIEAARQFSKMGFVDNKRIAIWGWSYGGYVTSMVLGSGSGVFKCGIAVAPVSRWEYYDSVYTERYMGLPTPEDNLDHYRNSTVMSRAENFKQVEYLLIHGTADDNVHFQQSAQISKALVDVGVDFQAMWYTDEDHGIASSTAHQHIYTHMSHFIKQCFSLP

By IC50 is commonly meant the point on the concentration scale where inhibition reaches its midpoint. Consider `CC#CCn1c(N2CCC[C@@H](N)C2)nc2c1c(=O)n(Cc1cccc(F)c1C#N)c(=O)n2C` [Compound I-1, 1-[(6-fluorine-benzonitrile-2-yl)methyl]-3-methyl-7-(2-butyne-1-yl)-8-[(R)-3-amino-piperidine-1-yl]-xanthine], for which the IC50 in data set [1] was 0.21 nM.
In the case of `CC#CCn1c(N2CCC[C@@H](N)C2)nc2c1c(=O)n(Cc1cc(F)c(F)cc1C#N)c(=O)n2C` [Compound I-2, 1-[(4,5-difluoro-benzonitrile-2-yl)methyl]-3-methyl-7-(2-butyne-1-yl)-8-[(R)-3-amino-piperidine-1-yl]-xanthine], in data set [1], the IC50 worked out at 2.1 nM.
Consider `CC#CCn1c(N2CCC[C@@H](N)C2)nc2c1c(=O)n(Cc1ncccc1C(=O)OC)c(=O)n2C` [Compound I-4, 1-[(3-methyl formate-pyridine-2-yl)methyl]-3-methyl-7-(2-butyne-1-yl)-8-[(R)-3-amino-piperidine-1-yl]-xanthine], for which the IC50 in data set [1] stood at 4.8 nM.
Consider `CC#CCn1c(N2CCC[C@@H](N)C2)nc2c1c(=O)n(Cc1nc(C)c3ccccc3n1)c(=O)n2C` [Linagliptin, linagliptin, reference compound], for which the “Blood glucose concentration 0 min” value in the data set on normal mice (C57BL/6J) (normal mice C57BL/6J, drug at -60 min (0.6 mg/ml, 5 ml/kg), 5 g/kg glucose at 0 min) is recorded as 8.64* mmol/L; in data set [2] (obese mice B6.Cg-Lepob/JNju, drug at -60 min (0.6 mg/ml, 5 ml/kg), 2 g/kg glucose at 0 min), 10.95 mmol/L; in data set [3] (diabetic mice B6.BKS(D)-Leprdb/JNju, drug at -60 min (0.6 mg/ml, 5 ml/kg), 2 g/kg glucose at 0 min), 12.09 mmol/L. In addition, the “Blood glucose concentration 15 min” value in the data set with normal mice (C57BL/6J) (normal mice, 15 min after glucose) is given as 14.7*** mmol/L; in data set [2] (obese mice, 15 min after glucose) it was 31.73 mmol/L; in data set [3] (diabetic mice, 15 min after glucose), 29.98* mmol/L. For the same compound, the “Blood glucose concentration 30 min” value in the data set on normal mice (C57BL/6J) (normal mice, 30 min after glucose) is 10.5*** mmol/L; in data set [2] (obese mice, 30 min after glucose), 27.98 mmol/L; in data set [3] (diabetic mice, 30 min after glucose), 20.15*** mmol/L. The “Blood glucose concentration 45 min” value in the data set on normal mice (C57BL/6J) (normal mice, 45 min after glucose) is 9.5*** mmol/L; in data set [2] (obese mice, 45 min after glucose) it was 20.50 mmol/L; in data set [3] (diabetic mice, 45 min after glucose), 16.60*** mmol/L. The “Blood glucose concentration 60 min” value in the data set on normal mice (C57BL/6J) (normal mice, 60 min after glucose) is recorded as 10.14*** mmol/L; in data set [2] (obese mice, 60 min after glucose), 16.00* mmol/L; in data set [3] (diabetic mice, 60 min after glucose), 15.83** mmol/L. Moreover, the “Blood glucose concentration 120 min” value in the data set on normal mice (C57BL/6J) (normal mice, 120 min after glucose) was 7.72 mmol/L; in data set [2] (obese mice, 120 min after glucose), 11.50 mmol/L; in data set [3] (diabetic mice, 120 min after glucose) it was 10.05* mmol/L. The AUC0-120 min in the data set with normal mice (C57BL/6J) (normal mice, blood glucose AUC) is on record as 1198***; in data set [2] (obese mice, blood glucose AUC), 2230; in data set [3] (diabetic mice, blood glucose AUC), 1987**. Moreover, the “bioavailability (F)” value in data set [4] was 18.4%; in data set [5], 30%.
